How the values were obtained:
Musca domestica = assay: Insecticidal activity against Musca domestica; format: in vivo; conditions: 24 h, 0.7 ml of 500 ppm on filter paper, ten female house flies, after one day
Protocol: Biological Test 4 Insecticidal Activity Against Musca domestica
(§1) Filter paper of 5.5 cm in diameter was laid in the bottom of a polyethylene cup (diameter: 5.5 cm). After 0.7 ml of a 500 ppm aqueous solution obtained by diluting each emulsifiable concentrate prepared from each of the present compounds according to the formulation example 1 was dropped on the filter paper and approximately 30 mg of sucrose was uniformly scattered, and put on the filter paper as bait, ten female house flies (Musca domestica) were left in the cup with a cover. After one day, the mortality was examined for the flies.

[1] = test system: larvae of Culex pipiens pallens; assay: Insecticidal activity against larvae of Culex pipiens pallens; format: in vivo; conditions: 3.5 ppm active ingredient in water, twenty last-instar larvae, after one day
Protocol: Biological Test 7 Insecticidal Activity Against Larvae of Culex pipiens pallens
Each of emulsifiable concentrates prepared from each of the present compounds according to the formulation example 1 was diluted with water, and 0.7 ml of the diluted solution was added to 100 ml of ion-exchanged water (concentration of active ingredient: 3.5 ppm). Twenty last-instar larvae of Culex pipiens pallens were left in the water. After one day, the activity was evaluated according to the following criteria:
A: Mortality not less than 90%
B: Mortality not less than 10% but less than 90%
C: Mortality less than 10%

[2] = Acute toxicity in oral application to mice; conditions: mouse, in vivo, 30 mg/kg, ICR male mice, after seven days
Protocol: Biological Test 9 Acute Toxicity in Oral Application to Mice
Each of the present compound was diluted with corn oil to a predetermined concentration. After subjecting the mice to a twenty-hour fasting, 0.1 ml of the diluted solution per 10 g weight was forcibly applied into the stomach of each ICR male 6-week old mouse (weight: 24 to 31 g). The mice were given food and water four hours after the application and thereafter regularly fed and watered, and kept in a cage. After seven days, the mortality was examined for the mice (4 mice/group).

Tetranychus cinnabarinus = assay: Activity against Tetranychus cinnabarinus; format: in vivo; set-up: key: -: substantially no damage; +: little damage; ++: heavy damage; conditions: 500 ppm, 15 ml spray plus 2 ml soil injection, kidney bean, after eight days
Protocol: Biological Test 8 Activity Against Tetranychus cinnabarinus
Ten male mites (Tetranychus cinnabarinus) per leaf were placed on a pot-planted kidney bean (Phasseolus vulgaris: seven days after sowing) and kept in a thermostatic chamber. After six days, 15 ml of a 500 ppm aqueous solution obtained by diluting each emulsifiable concentrate of each of the present compounds according to the formulation example 1 was sprayed in a pot simultaneously with injection of 2 ml of the solution into soil. After eight days, damage to the plant by Tetranychus cinnabarinus was evaluated according to the following criteria:
-: substantially no damage

root-knot nematodes = assay: Activity against root-knot nematodes; format: in vivo; set-up: key: -: substantially no root knots; +: several to ten odds root knots; ++: larger number of root knots (heavier damage than +); conditions: 25 ppm active ingredient in soil, tomato root, after four weeks
Protocol: Biological Test 6 Activity Against Root-knot Nematodes
One ml of a 500 ppm aqueous solution of each of the present compounds obtained by diluting each emulsifiable concentrate prepared from each of the present compounds according to the formulation example 1 was mixed with 19 g of soil contaminated with root-knot nematodes (concentration of active ingredient in soil: 25 ppm). After the soil was kept at 27° C. for 24 hours, the root of a tomato plant (approximately two weeks after sprouting) in a cup was covered with the soil and some water was given to the plant. After four weeks, damage to the root of the tomato plant was evaluated according to the following criteria:
-: substantially no root knots
+: several to ten odds root knots
++: larger number of root knots (heavier damage than +)

Blattella germanica = assay: Insecticidal activity against Blattella germanica; format: in vivo; conditions: 24 h, 0.7 ml of 500 ppm on filter paper, ten male cockroaches, after one day
Protocol: Biological Test 3 Insecticidal Avtivity Against Blattella germanica
as §1, with “scattered” for “scattered,”, “male cockroaches (Blattella germanica)” for “female house flies (Musca domestica)”, “cockroaches.” for “flies.”

[3] = test system: larvae of Diabrotica undecimpunctata; assay: Insecticidal activity against larvae of Diabrotica undecimpunctata; format: in vivo; conditions: 1 ml of 50 ppm on filter paper, approximately thirty eggs, after eight days
Protocol: Biological Text 5 Insecticidal Activity Against Larvae of Diabrotica undecimpunctata
Filter paper of 5.5 cm in diameter was laid in the bottom of a polyethylene cup (diameter: 5.5 cm). After 1 ml of a 50 ppm aqueous solution obtained by diluting each of the emulsifiable concentrate prepared from each of the present compounds according to the formulation example 1 was dropped on the filter paper and one sprouting corn crop was placed as bait on the paper, approximately thirty eggs of Diabrotica undecimpunctata were left on the filter paper. After eight days, the rate of hatched larvae was examined. The activity were evaluated according to the following criteria:
B: Mortality not less than 90% but less than 100%
C: Mortality less than 90%

[4] = test system: larvae of Spodoptera litura; assay: Insecticidal activity against larvae of Spodoptera litura; format: in vivo; conditions: 144 h, 4-instar larvae, artificial bait, after six days
Protocol: Biological Test 1 Insecticidal Activity Against Larvae of Spodoptera litura
Emulsifiable concentrates were prepared for each of the present compounds according to the formulation example 1. Thirteen grams of artificial bait for Spodoptera litura were placed in a polyethylene cup (diameter: 11 cm) and impregnated with 2 ml of the emulsifiable concentrate diluted with water (500 ppm). Ten 4-instar larvae of Spodoptera litura were put in the polyethylene cup. After six days, the mortality of the larvae was examined.

CCOP(=O)(SC(C)CC)N(CC#N)C(=O)OC (stereo not shown) [Compound 9, O-ethyl S-sec-butyl N-cyanomethyl N-methoxycarbonyl phosphoroamidothiolate]
mortality at 500 ppm (Musca domestica): 100%
Activity [1]: A (Mortality not less than 90%)
mortality at 168 h [2]: 0%
Activity (Tetranychus cinnabarinus): -
Activity (root-knot nematodes): -
mortality at 500 ppm (Blattella germanica): 100%
Activity [3]: A (Mortality 100%)
mortality at 500 ppm [4]: 100%

CCOP(=O)(SC(C)CC)N(CCC#N)C(=O)SC (stereo not shown) [Compound 13]
mortality at 500 ppm (Musca domestica): 100%
Activity [1]: A (Mortality not less than 90%)
mortality at 168 h [2]: 0%
Activity (Tetranychus cinnabarinus): -
Activity (root-knot nematodes): -
mortality at 500 ppm (Blattella germanica): 100%
Activity [3]: A (Mortality 100%)
mortality at 500 ppm [4]: 100%
